Experimental data: US20190255073A1, “ESTERS OF 3-POLYAMINE DERIVATIVES OF BILE ACIDS FOR THE TREATMENT OF INFECTIONS” (VIRBAC, priority 2016, published 2019)
Converted amounts (≈) assume the structure as drawn. Read-outs that look alike come from different tables or passages of the source.

Experiments:
E. coli ATCC28922 = assay: MIC determination by microplate dilution, E. coli human strain; assay type: cell-based, Escherichia coli; details: Mueller-Hinton medium, 24 h, 37° C.; for MIC: Escherichia coli, ATCC28922, Gram-negative
Method in brief: (§1)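 Twofold dilution series of compounds (stock 5 mg/mL, DMSO/methanol 50/50) in Mueller-Hinton medium, seeded with bacteria at OD 0.01 from 24 h, 37 °C precultures. After 24 h at 37 °C under humid atmosphere, MIC derived from OD at 620 nm; run in duplicate.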

S. aureus (340) = assay: MIC determination by microplate dilution, S. aureus animal strain; assay type: cell-based, Staphylococcus aureus; details: Gram-positive, Mueller-Hinton medium, 24 h, 37° C.; for MIC: Staphylococcus aureus
Method in brief: as §1

P. aeruginosa (1051575) [1] = assay: MIC determination by microplate dilution, P. aeruginosa animal strain; assay type: cell-based, Pseudomonas aeruginosa; details: Gram-negative, Mueller-Hinton medium, 24 h, 37° C.; for MIC: Pseudomonas aeruginosa
Method in brief: as §1

CHO-K1 cells = assay: WST1 cytotoxicity test on CHO-K1 cells; assay type: cell-based, Chinese hamster; details: for IC50: Cricetulus griseus
Method in brief: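 Viability read-out: WST-1 tetrazolium cleavage by mitochondrial dehydrogenases, 20 min at 37 °C, A450. Compounds added at rising concentrations, in duplicate, to CHO-K1 cells for 24 h (37 °C, 5% CO2). IC50, the concentration halving viability, fitted by nonlinear regression.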

E. coli (1956) = assay: MIC determination by microplate dilution, E. coli animal strain; assay type: cell-based, Escherichia coli; details: Gram-negative, Mueller-Hinton medium, 24 h, 37° C.; for MIC: Escherichia coli
Method in brief: as §1

E. faecalis ATCC29212 = assay: MIC determination by microplate dilution, E. faecalis human strain; assay type: cell-based, Enterococcus faecalis; details: Mueller-Hinton medium, 24 h, 37° C.; for MIC: Enterococcus faecalis, ATCC29212, Gram-positive
Method in brief: as §1

C. albicans = assay: Antifungal activity, cascade microdilution, C. albicans; assay type: cell-based, Candida albicans; details: 24 h; for IC50: Candida albicans, read-out: IC50 (μg/mL) C. albicans
S. aureus ATCC25923 = assay: MIC determination by microplate dilution, S. aureus human strain; assay type: cell-based, Staphylococcus aureus; details: Mueller-Hinton medium, 24 h, 37° C.; for MIC: Staphylococcus aureus, ATCC25923, Gram-positive
Method in brief: as §1

P. aeruginosa (1051575) [2] = assay: Potentiation of the doxycycline activity at 2 μg/mL; assay type: cell-based, Pseudomonas aeruginosa; details: in combination with doxycycline 2 μg/mL; 24 h, 37°
P. aeruginosa ATCC27853 = assay: MIC determination by microplate dilution, P. aeruginosa human strain; assay type: cell-based, Pseudomonas aeruginosa; details: Mueller-Hinton medium, 24 h, 37° C.; for MIC: Pseudomonas aeruginosa, ATCC27853, Gram-negative
Method in brief: as §1

S. intermedius (1051997) = assay: MIC determination by microplate dilution, S. intermedius animal strain; assay type: cell-based, Staphylococcus intermedius; details: Gram-positive, Mueller-Hinton medium, 24 h, 37° C.; for MIC: Staphylococcus intermedius
Method in brief: as §1

P. aeruginosa (1051575) [3] = assay: Potentiation of erythromycin activity; assay type: cell-based, Pseudomonas aeruginosa; details: concentration of compound required with erythromycin 2 μg/mL
Experimental: (§2) This method requires the use of a 96-well plate: 100 μL of a liquid culture medium are placed in each well and then seeded with the microbial suspension prepared previously. The required volume to be seeded is calculated for an OD of 0.01, which corresponds to about 5×10^6 bacteria in each well. In this plate, the first line corresponds to a negative control (200 μL of sterile culture medium in each well), the second line corresponds to a positive control (100 μL of sterile culture medium+100 μL of the bacterial suspension), and the third line contains 192 μL of culture medium; 8 μL of compound of formula (I) to be tested are placed in each well. Thereafter, a cascade dilution is performed from this line. μL of a doxycycline solution (1 mg dissolved in 20 mL) are then added to each well of the lines 3 to 8 to obtain a final antibiotic concentration of 2 μg/mL. 92 μL of bacterial suspension are then added to lines 3 to 8. […] After 24 hours of incubation at 37° C., 40 μL of nitro tetrazolium iodide are added to each well to reveal the presence of live bacteria by staining the medium pink.
The procedure is identical to that indicated in Example 5 above. 8 μL of an antibiotic solution under consideration (1 mg dissolved in 20 mL) are added to obtain a final antibiotic concentration of 2 μg/mL instead of 8 μL of a doxycycline solution.
(§3) The results are given in table V. They indicate the concentration of compound of formula (I) required to be able to restore the activity of the antibiotic under consideration.

P. aeruginosa (1051575) [4] = assay: Potentiation of chloramphenicol activity; assay type: cell-based, Pseudomonas aeruginosa; details: concentration of compound required with chloramphenicol 2 μg/mL
Experimental: as §2, with “Thereafter, a cascade dilution is performed from this line. μL of a doxycycline solution (1 mg dissolved in 20 mL) are then added to each well of the lines 3 to 8 to obtain a final antibiotic concentration of 2 μg/mL.” left out
The procedure is identical to that indicated in Example 5 above. […]
as §3

[5] = CHO-K1, 24 h, read-out: IC50 (μg/mL) CHO
[6] = CHO-K1, read-out: IC50 (μg/mL) CHO
[7] = compounds as hydrochloride in water, MH medium

Compound	MIC (E. coli ATCC28922) [µg/mL]	MIC (S. aureus (340)) [µg/mL]	MIC (P. aeruginosa (1051575) [1]) [µg/mL]	IC50 (CHO-K1 cells; [5]) [µg/mL]	IC50 (CHO-K1 cells; [6]) [µg/mL]	MIC (E. coli (1956)) [µg/mL]	MIC (E. faecalis ATCC29212) [µg/mL]	IC50 (C. albicans) [µg/mL]	MIC (S. aureus ATCC25923) [µg/mL]	MIC - P. aeruginosa (1051575): content of compound of formula (I) to restore the doxycycline activity (at 2 μg/mL) (P. aeruginosa (1051575) [2]) [µg/mL]	MIC (P. aeruginosa ATCC27853) [µg/mL]	MIC (S. intermedius (1051997)) [µg/mL]	MIC P. aeruginosa (1051575), compound + erythromycin (P. aeruginosa (1051575) [3]) [µg/mL]	MIC P. aeruginosa (1051575), compound + chloramphenicol (P. aeruginosa (1051575) [4]) [µg/mL]	other results
CC(C)OC(=O)CC[C@@H](C)[C@H]1CCC2C3CCC4C[C@@H](NCCCNCCCN)CC[C@]4(C)C3CC[C@@]21C (stereo partly drawn) [(16), isopropyl 3β-norspermidinolithocholate]	14 (≈ 26.3 µM)	3.5 (≈ 6.58 µM)	3.5 (≈ 6.58 µM)	13 (≈ 24.4 µM)	13 (≈ 24.4 µM)	7 (≈ 13.2 µM)	3.5 (≈ 6.58 µM)	2 (≈ 3.76 µM)	3.5 (≈ 6.58 µM)	3	7 (≈ 13.2 µM)	7 (≈ 13.2 µM)	–	–	–
COC(=O)CC[C@@H](C)[C@H]1CCC2C3CCC4C[C@@H](NCCNCCNCCNCCN)CC[C@]4(C)C3C[C@H](O)[C@@]21C (stereo partly drawn) [(19), methyl 3β-(tetraethylenepentamine)deoxycholate]	7 (≈ 12.1 µM)	7 (≈ 12.1 µM)	7 (≈ 12.1 µM)	40 (≈ 69.2 µM)	40 (≈ 69.2 µM)	29 (≈ 50.2 µM)	7 (≈ 12.1 µM)	4 (≈ 6.92 µM)	4 (≈ 6.92 µM)	4	15 (≈ 26 µM)	7 (≈ 12.1 µM)	–	–	–
CC(C)OC(=O)CC[C@@H](C)[C@H]1CCC2C3CCC4C[C@@H](NCCNCCNCCNCCNCCN)CC[C@]4(C)C3CC[C@@]21C (stereo partly drawn) [(26), isopropyl 3β-(pentaethylenehexamine)lithocholate]	–	18 (≈ 28.4 µM)	60 (≈ 94.8 µM)	–	–	60 (≈ 94.8 µM)	–	–	–	–	–	8 (≈ 12.6 µM)	60	8	–
CC(C)OC(=O)CC[C@@H](C)[C@H]1CCC2C3CCC4C[C@@H](NCCNCCNCCNCCNCCN)CC[C@]4(C)C3C[C@H](O)[C@@]21C (stereo partly drawn) [(27), isopropyl 3β-(pentaethylenehexamine)deoxycholate]	32 (≈ 49.3 µM)	> 130	65 (≈ 100 µM)	–	110 (≈ 169 µM)	65 (≈ 100 µM)	32 (≈ 49.3 µM)	4 (≈ 6.16 µM)	16 (≈ 24.7 µM)	8	65 (≈ 100 µM)	16 (≈ 24.7 µM)	–	–	–
COC(=O)CC[C@@H](C)[C@H]1CCC2C3CCC4C[C@@H](NCCCN(C)CCCN)CC[C@]4(C)C3C[C@H](O)[C@@]21C (stereo partly drawn) [(31), methyl 3β-(bis(3-aminopropyl)methylamine)deoxycholate]	26 (≈ 48.7 µM)	7 (≈ 13.1 µM)	13 (≈ 24.4 µM)	55 (≈ 103 µM)	55 (≈ 103 µM)	13 (≈ 24.4 µM)	13 (≈ 24.4 µM)	2 (≈ 3.75 µM)	7 (≈ 13.1 µM)	3	26 (≈ 48.7 µM)	3 (≈ 5.62 µM)	–	–	–
COC(=O)CC[C@@H](C)[C@H]1CCC2C3CCC4C[C@@H](NCCCN(CCCN)CCCN)CC[C@]4(C)C3C[C@H](O)[C@@]21C (stereo partly drawn) [(32), methyl 3β-(tris(3-aminopropyl)amine)deoxycholate]	7 (≈ 12.1 µM)	7 (≈ 12.1 µM)	7 (≈ 12.1 µM)	30 (≈ 52 µM)	30 (≈ 52 µM)	30 (≈ 52 µM)	14 (≈ 24.3 µM)	2 (≈ 3.47 µM)	4 (≈ 6.93 µM)	4	14 (≈ 24.3 µM)	7 (≈ 12.1 µM)	–	–	–
CC(C)OC(=O)CC[C@@H](C)[C@H]1CCC2C3C(CC[C@@]21C)[C@@]1(C)CC[C@H](NCCN(CCN)CCN)CC1C[C@@H]3O (stereo partly drawn) [(43), isopropyl 3β-(tris(2-aminoethyl)amine)ursodeoxycholate]	–	–	14 (≈ 24.9 µM)	–	–	56 (≈ 99.5 µM)	–	–	–	–	–	7 (≈ 12.4 µM)	28	–	–
CC(C)OC(=O)CC[C@@H](C)[C@H]1CCC2C3C(CC[C@@]21C)[C@@]1(C)CC[C@H](NCCCN(C)CCCN)CC1C[C@@H]3O (stereo partly drawn) [(44), isopropyl 3β-(bis(3-aminopropyl)methylamine)ursodeoxycholate]	–	28 (≈ 49.8 µM)	28 (≈ 49.8 µM)	–	–	56 (≈ 99.7 µM)	–	–	–	–	–	14 (≈ 24.9 µM)	55	14	–
CC(C)OC(=O)CC[C@@H](C)[C@H]1CCC2C3CCC4C[C@@H](NCCCN(CCCN)CCCN)CC[C@]4(C)C3CC[C@@]21C (stereo partly drawn) [(47), isopropyl 3β-(tris(3-aminopropyl)amine)lithocholate]	–	7 (≈ 11.9 µM)	30 (≈ 50.9 µM)	–	–	60 (≈ 102 µM)	–	–	–	–	–	4 (≈ 6.79 µM)	30	4	IC50 (CHO-K1 cells; CHO-K1, CHO (Example 7), read-out: IC50 (μg/mL) CHO): 120 µg/mL (≈ 204 µM); IC50 (C. albicans; [7]): 2 µg/mL (≈ 3.4 µM)
CC(C)OC(=O)CC[C@@H](C)[C@H]1CCC2C3CCC4C[C@@H](NCCN(CCN)CCN)CC[C@]4(C)C3CC[C@@]21C (stereo partly drawn) [(48), isopropyl 3β-(tris(2-aminoethyl)amine)lithocholate]	–	–	–	–	–	–	–	–	–	–	–	7 (≈ 12.8 µM)	55	7	–
CC(C)OC(=O)CC[C@@H](C)[C@H]1CCC2C3CCC4C[C@@H](NCCCN(C)CCCN)CC[C@]4(C)C3CC[C@@]21C (stereo partly drawn) [(49), isopropyl 3β-(bis(3-aminopropyl)methylamine)lithocholate]	–	27 (≈ 49.5 µM)	27 (≈ 49.5 µM)	–	–	27 (≈ 49.5 µM)	–	–	–	–	–	14 (≈ 25.6 µM)	55	14	–
methyl 3β-(bis(3-aminopropyl)methylamine)ursodeoxycholate [(53)]	–	–	–	–	–	–	–	–	–	7	–	–	–	–	MIC E. coli Human ATCC28922 (E. coli ATCC28922; Gram-negative): 55 µg/mL; MIC S. aureus Animal (340) (S. aureus (340)): 27 µg/mL; MIC P. aeruginosa Animal (1051575) (P. aeruginosa (1051575) [1]): 55 µg/mL; IC50 (μg/mL) CHO (CHO-K1 cells; CHO (Example 7)): 50 µg/mL; IC50 (μg/mL) CHO (CHO-K1 cells; Table III, WST1, CHO-K1 cells, 24 h, concentration reducing cell viability by 50%): 50 µg/mL; MIC E. coli Animal (1956) (E. coli (1956)): 55 µg/mL; MIC E. faecalis Human ATCC29212 (E. faecalis ATCC29212; Gram-positive): 55 µg/mL; IC50 (μg/mL) C. albicans (C. albicans; [7]): 3 µg/mL; MIC S. aureus Human ATCC25923 (S. aureus ATCC25923; Gram-positive): 27 µg/mL; MIC P. aeruginosa Human ATCC27853 (P. aeruginosa ATCC27853; Gram-negative): 55 µg/mL; MIC S. intermedius Animal (1051997) (S. intermedius (1051997)): 7 µg/mL
